Laboratory results published in patent US9394331B2, “2′-spiro-nucleosides and derivatives thereof useful for treating hepatitis C virus and dengue virus infections” (priority 2010, dated 2016).
Read-outs that look alike come from different tables or passages of the source.

Key:
[1] = system: HCV replicon; test: HCV replicon assay (Clone A cells and ET-lunet cells, HCV RNA by real time PCR); assay type: cell-based, hepatitis C virus; conditions: for EC90: read-out: EC90, anti-HCV 1b activity
Protocol: HCV replicon assay. HCV replicon assays using Clone A cells and ET-lunet cells were performed as described previously. L. J. Stuyver et al. Antimicrob. Agents Chemother. 2004, 48, 651-654. Briefly, Clone A cells and ET-lunet cells were seeded at a density of 1500 and 3000 cells per well in a 96-well plate, respectively. Test compounds serially diluted in culture medium without G418 were added to cells. Plates were incubated at 37° C. in a 5% CO2 atmosphere for 4 days. Inhibition of HCV RNA replication was determined by quantitative real time PCR. See, e.g., L. J. Stuyver et al. Antiviral Chem. Chemother. 2006, 17, 79-87.
To express the antiviral effectiveness of a compound, the threshold RT-PCR cycle of the test compound was subtracted from the average threshold RT-PCR cycle of the no-drug control (ΔCtHCV). A ΔCt of 3.3 equals a 1-log 10 reduction (equal to the 90% effective concentration [EC90]) in replicon RNA levels. The cytotoxicity of the test compound could also be expressed by calculating the ΔCtrRNA values. The ΔΔCt specificity parameter could then be introduced (ΔCtHCV-ΔCtrRNA), in which the levels of HCV RNA are normalized for the rRNA levels and calibrated against the no-drug control.

[2] = Cytotoxicity reported with the dengue assay; assay type: cell-based; conditions: Table 6; cell line not stated
[3] = Cell cytotoxicity assay (MTS); assay type: cell-based; conditions: human
Protocol: Cell cytotoxicity assays. Each compound (serially diluted from 100 μM) was added to Huh7 (2×10^3 cells/well), HepG2 (2×10^3 cells/well), BxPC3 (2×10^3 cells/well), or CEM (5×10^3 cells/well) cells and allowed to incubate for 8 days at 37° C. A medium only control was used to determine the minimum absorbance value […]. At the end of the growth period, MTS dye from the CellTiter 96 Aqueous One Solution Cell Proliferation Assay kit (Promega) was added to each well and the plate was incubated for an additional 2 hours. The absorbance at 490 nm was read with a Victor3 plate reader (Perkin Elmer) using the medium only control wells as blanks. The 50% inhibition value (CC50) was determined by comparing the absorbance in wells containing cells and test compound to untreated cell control wells.

[4] = system: Dengue 2 strain New Guinea C; test: Dengue CPE assay; assay type: cell-based, Dengue virus 2; conditions: Table 6, BHK-21 cells, 3 days, 50% cells surviving, read-out: EC50, activity against dengue virus
Protocol: Dengue CPE Assay. To measure cytopathic effect of Dengue virus 2, BHK-21 ([…], CCL-10 ATCC Manassas, Va.) cells were seeded at a density of 20,000 cells/well in a 96-well black/clear bottom plates (Becton Dickinson, Franklin Lakes, N.J.) one day prior to start of the assay and allowed to attach overnight in EMEM (ATCC Manassas, Va.) +10% FBS (Invitrogen, Carlsbad, Calif.) at 37° C. in a humidified 5% CO2 atmosphere. The next day, the medium was removed and the cells were infected with Dengue 2 strain New Guinea C (VR-1584, ATCC Manassas, Va.) at an MOI of 0.08 pfu/cell for two hours in 50 μL EMEM+2% FBS. For both the single point and dose response assays, compounds (2× concentration) were diluted in EMEM+2% FBS and 50 μL was added to infected cells without removing virus. Cells were incubated for 3 days at 37° C. in a humidified 5% CO2 atmosphere. The medium was aspirated and 50 μL of CellTiter-Glo (Promega, Madison, Wis.) was added to each well and read for 0.1 seconds on a Perkin Elmer Victor3 (Waltham, Mass.) plate reader. Percent survival was determined by subtracting the average value of infected control wells and normalizing to the non-infected wells. The effective concentration was calculated from the dose response data by forecasting 50% cells surviving with drug treatment.

[5] = Hepatitis C virus, Table 2, HCV 1b replicon, unit inferred, read-out: EC50, anti-HCV 1b activity
[6] = Table 3, cell line not stated, read-out: CC50
[7] = Hepatitis C virus, 96 h, Table 4, cyclic phosphates, diastereomeric mixtures
[8] = Hepatitis C virus, 96 h, Table 4, cyclic phosphates, diastereomeric mixtures, read-out: EC50, anti-HCV 1b activity
[9] = Hepatitis C virus, 96 h, Table 1, HCV replicon, 4 days, read-out: EC50, anti-HCV activity of selected nucleosides

## COC(=O)[C@H](C)NP(=O)(OC[C@H]1O[C@@H](n2ccc(=O)[nH]c2=O)[C@@]2(CCCO2)[C@@H]1O)Oc1ccccc1 (stereo partly drawn) [compound 116, (2S)-methyl 2-(((((5R,6R,8R,9R)-6-(2,4-dioxo-3,4-dihydropyrimidin-1 (2H)-yl)-9-hydroxy-1,7-dioxaspiro[4.4]nonan-8-yl)methoxy)(phenoxy)phosphoryl)amino)propanoate]
[1]; [5]
  EC50: 28.3 µM

## COc1nc(N)nc2c1ncn2C1OC(COP(=O)(N[C@@H](C)C(=O)OCc2ccccc2)Oc2ccccc2)[C@@H](O)[C@]12CCO2 (stereo partly drawn) [compound 130]
[1]; Hepatitis C virus, Table 3, HCV 1b replicon, read-out: EC50, anti-HCV 1b activity
  EC50: 8.65 µM
[1]; Hepatitis C virus, Table 3, HCV 1b replicon
  EC90: 15.1 µM
[2]
  CC50: > 20 µM
[3]; [6]
  CC50 at 8 days: > 20 µM
[4]
  EC50: 3.84 µM

## COC(=O)[C@H](C)NP(=O)(OC[C@H]1O[C@@H](n2ccc(=O)[nH]c2=O)[C@@]2(CCO2)[C@@H]1O)Oc1ccccc1 (stereo partly drawn) [compound 117, (2S)-methyl 2-(((((4R,5R,7R,8R)-5-(2,4-dioxo-3,4-dihydropyrimidin-1 (2H)-yl)-8-hydroxy-1,6-dioxaspiro[3.4]octan-7-yl)methoxy)(phenoxy)phosphoryl)amino)propanoate]
[1]; [5]
  EC50: 16.7 µM

## COc1nc(N)nc2c1ncn2C1OC(COP(=O)(N[C@@H](C)C(=O)OCC(C)C)Oc2ccccc2)[C@@H](O)[C@]12CCO2 (stereo partly drawn) [compound 124]
[1]; Table 3, HCV 1b replicon, read-out: EC50, anti-HCV 1b activity
  EC50: 0.566 µM
[1]; Table 3, HCV 1b replicon
  EC90: 1.81 µM
[2]
  CC50: > 20 µM
[3]; [6]
  CC50 at 8 days: > 20 µM
[4]; Dengue virus, BHK-21, 72 h
  EC50: 2.21 µM

## COC(=O)[C@H](C)NP(=O)(OC[C@H]1O[C@@H](n2cnc3c(OC)nc(N)nc32)[C@@]2(CCO2)[C@@H]1O)Oc1ccccc1 (stereo partly drawn) [compound 113, (2S)-methyl 2-(((((4R,5R,7R,8R)-5-(2-amino-6-methoxy-9H-purin-9-yl)-8-hydroxy-1,6-dioxaspiro[3.4]octan-7-yl)methoxy)(phenoxy)phosphoryl)amino)propanoate]
[1]; [5]
  EC50: 1.55 µM
[2]
  CC50: > 20 µM
[4]; Dengue virus, BHK-21, 72 h
  EC50: 6.23 µM

## COc1nc(N)nc2c1ncn2C1OC2COP(=O)(OC3CCCC3)O[C@H]2[C@]12CCO2 (stereo partly drawn) [compound 134]
[1]; [7]
  EC90: > 20 µM
[1]; Hepatitis C virus, Table 4, cyclic phosphates, diastereomeric mixtures, read-out: EC50, anti-HCV 1b activity
  EC50: 14 µM
[3]
  CC50 at 8 days: > 20 µM

## COc1nc(N)nc2c1ncn2C1OC2COP(=O)(OC(C)C)O[C@H]2[C@]12CCO2 (stereo partly drawn) [compound 133]
[1]; [8]
  EC50: > 20 µM
[1]; [7]
  EC90: > 20 µM
[3]
  CC50 at 8 days: > 20 µM

## O=c1ccn([C@@H]2O[C@H](CO)[C@@H](O)[C@@]23CCCO3)c(=O)[nH]1 [compound 32, 1-((5 S,6R,8R,9R)-9-hydroxy-8-(hydroxymethyl)-1,7-dioxaspiro[4.4]nonan-6-yl)pyrimidine-2,4(1H,3H)-dione]
[1]; [9]
  EC50: > 100 µM

## Nc1nc2c(ncn2[C@@H]2O[C@H](CO)[C@@H](O)[C@]23CCO3)c(=O)[nH]1 [compound 77, 2-amino-9-((4R,5R,7R,8R)-8-hydroxy-7-(hydroxymethyl)-1,6-dioxaspiro[3.4]octan-5-yl)-1H-purin-6(9H)-one]
[1]; [9]
  EC50: > 20 µM

## Nc1ccn([C@@H]2O[C@H](CO)[C@@H](O)[C@]23CCO3)c(=O)n1 [compound 52, 4-amino-1-((4R,5R,7R,8R)-8-hydroxy-7-(hydroxymethyl)-1,6-dioxaspiro[3.4]octan-5-yl)pyrimidin-2(1H)-one]
[1]; [9]
  EC50: > 54.5 µM

## Nc1ccn([C@@H]2O[C@H](CO)[C@@H](O)[C@]23CCCO3)c(=O)n1 [compound 49, 4-amino-1-((5R,6R,8R,9R)-9-hydroxy-8-(hydroxymethyl)-1,7-dioxaspiro[4.4]nonan-6-yl)pyrimidin-2(1H)-one]
[1]; [9]
  EC50: > 100 µM

## COC(=O)[C@H](C)NP(=O)(OC[C@H]1O[C@@H](n2ccc(=O)[nH]c2=O)[C@]2(CCCO2)[C@@H]1O)Oc1ccccc1 (stereo partly drawn) [compound 114, (2S)-methyl 2-(((((5S,6R,8R,9R)-6-(2,4-dioxo-3,4-dihydropyrimidin-1 (2H)-yl)-9-hydroxy-1,7-dioxaspiro[4.4]nonan-8-yl)methoxy)(phenoxy)phosphoryl)amino)propanoate]
[1]; [5]
  EC50: 20.6 µM

## O=c1ccn([C@@H]2O[C@H](CO)[C@@H](O)[C@@]23CCO3)c(=O)[nH]1 [compound 36, 1-((4S,5R,7R,8R)-8-hydroxy-7-(hydroxymethyl)-1,6-dioxaspiro[3.4]octan-5-yl)pyrimidine-2,4(1H,3H)-dione]
[1]; [9]
  EC50: > 100 µM

## Nc1ccn([C@@H]2O[C@H](CO)[C@@H](O)[C@@]23CCO3)c(=O)n1 [compound 51, 4-amino-1-((4S,5R,7R,8R)-8-hydroxy-7-(hydroxymethyl)-1,6-dioxaspiro[3.4]octan-5-yl)pyrimidin-2(1H)-one]
[1]; [9]
  EC50: > 100 µM

## Nc1ccn([C@@H]2O[C@H](CO)[C@@H](O)[C@@]23CCCO3)c(=O)n1 [compound 50, 4-amino-1-((5S,6R,8R,9R)-9-hydroxy-8-(hydroxymethyl)-1,7-dioxaspiro[4.4]nonan-6-yl)pyrimidin-2(1H)-one]
[1]; [9]
  EC50: > 100 µM

## O=c1ccn([C@@H]2O[C@H](CO)[C@@H](O)[C@]23CCCO3)c(=O)[nH]1 [compound 44, 1-((5R,6R,8R,9R)-9-hydroxy-8-(hydroxymethyl)-1,7-dioxaspiro[4.4]nonan-6-yl)pyrimidine-2,4(1H,3H)-dione]
[1]; [9]
  EC50: > 100 µM

## COc1nc(N)nc2c1ncn2[C@@H]1O[C@H](CO)[C@@H](O)[C@]12CCCO2 [compound 72, (5R,6R,8R,9R)-6-(2-amino-6-methoxy-9H-purin-9-yl)-8-(hydroxymethyl)-1,7-dioxaspiro[4.4]nonan-9-ol]
[1]; [9]
  EC50: > 20 µM

## COc1nc(N)nc2c1ncn2[C@@H]1O[C@H](CO)[C@@H](O)[C@@]12CCCO2 [compound 62, (5S,6R,8R,9R)-6-(2-amino-6-methoxy-9H-purin-9-yl)-8-(hydroxymethyl)-1,7-dioxaspiro[4.4]nonan-9-ol]
[1]; [9]
  EC50: > 20 µM

## COc1nc(N)nc2c1ncn2[C@@H]1O[C@H](CO)[C@@H](O)[C@]12CCO2 [compound 76, (4R,5R,7R,8R)-5-(2-amino-6-methoxy-9H-purin-9-yl)-7-(hydroxymethyl)-1,6-dioxaspiro[3.4]octan-8-ol]
[1]; [9]
  EC50: > 100 µM

## O=c1ccn([C@@H]2O[C@H](CO)[C@@H](O)[C@]23CCO3)c(=O)[nH]1 [compound 48, 1-((4R,5R,7R,8R)-8-hydroxy-7-(hydroxymethyl)-1,6-dioxaspiro[3.4]octan-5-yl)pyrimidine-2,4(1H,3H)-dione]
[1]; [9]
  EC50: > 100 µM

## COc1nc(N)nc2c1ncn2[C@@H]1O[C@H](CO)[C@@H](O)[C@@]12CCO2 [compound 66, (4S,5R,7R,8R)-5-(2-amino-6-methoxy-9H-purin-9-yl)-7-(hydroxymethyl)-1,6-dioxaspiro[3.4]octan-8-ol]
[1]; [9]
  EC50: > 20 µM

## COC(=O)[C@H](C)NP(=O)(OC[C@H]1O[C@@H](n2ccc(=O)[nH]c2=O)[C@]2(CCO2)[C@@H]1O)Oc1ccccc1 (stereo partly drawn) [compound 115, (2S)-methyl 2-(((((4S,5R,7R,8R)-5-(2,4-dioxo-3,4-dihydropyrimidin-1 (2H)-yl)-8-hydroxy-1,6-dioxaspiro[3.4]octan-7-yl)methoxy)(phenoxy)phosphoryl)amino)propanoate]
[1]; [5]
  EC50: 28.5 µM

## COc1nc(N)nc2c1ncn2C1OC2COP(=O)(OCC(C)(C)C)O[C@H]2[C@]12CCO2 (stereo partly drawn) [compound 132]
[1]; [8]
  EC50: > 20 µM
[1]; [7]
  EC90: > 20 µM
[3]
  CC50 at 8 days: > 20 µM
